Test systems include A549 NSCLC; ACHN renal; EKVX NSCLC; MCF7 breast; NCI-H460 lung; PC-3 prostate; SF-268 CNS; SF-295 CNS; SNB-75 CNS; UO-31 renal.
Assay in all cases: NCI-60 cell line screen, 48 h

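Each compound was tested at five concentrations against cells in 96-well plates for 48 hours. At the GI50, growth is halved. TGI: total growth inhibition.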 Bounds are passed on as bounds.

`C=C1C(=O)OC2C1CC(OC(C)=O)/C(C)=C/CCC1(C)OC21` (centres undefined): the TGI with A549 NSCLC, in the experiment on ACHN renal, with EKVX NSCLC, with MCF7 breast, in the experiment on NCI-H460 lung and in the experiment on PC-3 prostate was greater than 100 µM in each case. The TGI in the experiment with SF-268 CNS, with SF-295 CNS, in the experiment with SNB-75 CNS and in the experiment on UO-31 renal was greater than 100 µM in each case.

For `CC(=O)NC1CONC1=O` (centres undefined), the TGI with A549 NSCLC, with ACHN renal, in the experiment with EKVX NSCLC, with MCF7 breast, in the experiment with NCI-H460 lung and with PC-3 prostate was greater than 100 µM in each case. The TGI with SF-268 CNS, in the experiment on SF-295 CNS, in the experiment on SNB-75 CNS and in the experiment with UO-31 renal was greater than 100 µM each time.

Regarding `Cn1cc(S(=O)(=O)N2CCC3=Cc4c(cnn4-c4ccc(F)cc4)C[C@]3(C(=O)c3cc(C(F)(F)F)ccn3)C2)cn1`, the GI50 in the experiment with A549 NSCLC is 39.7 µM; in the experiment on ACHN renal it was greater than 100 µM; in the experiment on EKVX NSCLC it was 7.98 µM; in the experiment with MCF7 breast, 6.34 µM; in the experiment with NCI-H460 lung, greater than 100 µM; in the experiment with PC-3 prostate, 31.4 µM. The GI50 with SF-268 CNS is greater than 100 µM; with SF-295 CNS, greater than 100 µM; in the experiment on SNB-75 CNS, greater than 100 µM; in the experiment with UO-31 renal it was 9.52 µM. Moreover, the TGI in the experiment on A549 NSCLC, in the experiment on ACHN renal, in the experiment on EKVX NSCLC, in the experiment with MCF7 breast, in the experiment with NCI-H460 lung and in the experiment with PC-3 prostate was greater than 100 µM in each case. In addition, the TGI with SF-268 CNS, with SF-295 CNS, in the experiment with SNB-75 CNS and in the experiment with UO-31 renal was greater than 100 µM throughout.

Take `CC(C)(C)c1cc(C(=O)/C=C/c2ccc(C(=O)O)cc2)cc(C(C)(C)C)c1`: the TGI in the experiment with A549 NSCLC is 13.4 µM; with ACHN renal, 15.5 µM; with EKVX NSCLC, 16.9 µM; in the experiment on MCF7 breast, 14.8 µM; in the experiment with NCI-H460 lung, 7.36 µM; in the experiment on PC-3 prostate, 16.4 µM. For the same molecule, the TGI in the experiment with SF-268 CNS was 6.82 µM; in the experiment with SF-295 CNS, 7.29 µM; in the experiment with SNB-75 CNS, 15 µM; in the experiment on UO-31 renal it was 17.8 µM.

In the case of `NCCCOc1cc(Cl)ccc1NC(=O)c1cc2ccccc2cc1OCCCN`, the GI50 in the experiment on A549 NSCLC is 1.54 µM; in the experiment with ACHN renal it was 1.48 µM; with EKVX NSCLC, 1.69 µM; in the experiment with MCF7 breast, 1.62 µM; in the experiment on NCI-H460 lung it was 1.68 µM; with PC-3 prostate it was 1.41 µM. Also, the GI50 in the experiment with SF-268 CNS is 1.29 µM; in the experiment with SF-295 CNS, 1.66 µM; with SNB-75 CNS it was 1.23 µM; in the experiment with UO-31 renal, 1.2 µM. Further, the TGI amounted to 3.06 µM in the experiment with A549 NSCLC; 2.88 µM in the experiment with ACHN renal; 3.58 µM in the experiment with EKVX NSCLC; 3.07 µM with MCF7 breast; 3.21 µM in the experiment with NCI-H460 lung; 2.83 µM in the experiment on PC-3 prostate. Further, the TGI in the experiment on SF-268 CNS is 2.63 µM; in the experiment on SF-295 CNS, 3.42 µM; with SNB-75 CNS, 2.5 µM; in the experiment with UO-31 renal, 2.65 µM.

As for `Clc1nc(Cl)c2ncn(Cc3ccccc3Cn3cnc4c(Cl)nc(Cl)nc43)c2n1`, the GI50 in the experiment with A549 NSCLC is 6.9 µM; in the experiment with ACHN renal it was 1.59 µM; in the experiment on EKVX NSCLC it was 1.36 µM; in the experiment on MCF7 breast, 0.922 µM; with NCI-H460 lung, 3.07 µM; in the experiment on PC-3 prostate, 2.04 µM. For the same molecule, the GI50 is 3.05 µM with SF-268 CNS, 7.05 µM with SF-295 CNS, 3.9 µM in the experiment with SNB-75 CNS and 1.91 µM in the experiment with UO-31 renal. In addition, the TGI in the experiment with A549 NSCLC was 21.4 µM; in the experiment on ACHN renal, 2.96 µM; in the experiment with EKVX NSCLC, 3.02 µM; in the experiment on MCF7 breast it was 4.99 µM; in the experiment with NCI-H460 lung, 11.7 µM; in the experiment on PC-3 prostate it was 5.53 µM. The TGI in the experiment with SF-268 CNS turned out to be 12.3 µM; in the experiment with SF-295 CNS, 22.4 µM; in the experiment on SNB-75 CNS it was 16.4 µM; in the experiment with UO-31 renal, 3.85 µM.

Turning to `COc1cc(/C=C/C(=O)C(C(=O)/C=C/c2ccc(OC(=O)CCNC34CC5CC(CC(C5)C3)C4)c(OC)c2)C(=O)CCNC23CC4CC(CC(C4)C2)C3)ccc1OC(=O)CCNC12CC3CC(CC(C3)C1)C2` (centres undefined), the GI50 in the experiment on A549 NSCLC was 2.86 µM; with ACHN renal, 4.03 µM; in the experiment on EKVX NSCLC it was 2.95 µM; in the experiment on MCF7 breast, 1.97 µM; with NCI-H460 lung, 2.98 µM; in the experiment with PC-3 prostate, 3.86 µM. Moreover, the GI50 is 2.7 µM in the experiment on SF-268 CNS, 17.2 µM in the experiment with SF-295 CNS, 4.86 µM in the experiment with SNB-75 CNS and 2.71 µM in the experiment with UO-31 renal. The TGI stood at 10.1 µM in the experiment with A549 NSCLC; 34.1 µM in the experiment with ACHN renal; 8.97 µM in the experiment with EKVX NSCLC; 6.28 µM in the experiment on MCF7 breast; 10.2 µM with NCI-H460 lung; 25.1 µM in the experiment with PC-3 prostate. Besides, the TGI is 10.9 µM with SF-268 CNS, 34.4 µM in the experiment on SF-295 CNS, 33.3 µM with SNB-75 CNS and 18.7 µM in the experiment on UO-31 renal.

Turning to `NCCCn1c2c(c3ccccc3c1=O)C(=O)c1ccccc1-2`, the GI50 in the experiment with A549 NSCLC is 0.0597 µM; in the experiment on ACHN renal it was less than 0.0359 µM; with EKVX NSCLC, 0.539 µM; in the experiment with MCF7 breast it was 0.0728 µM; in the experiment with NCI-H460 lung it was 0.0647 µM; in the experiment on PC-3 prostate, 0.451 µM. The GI50 in the experiment with SF-268 CNS was 0.498 µM; with SF-295 CNS, 0.0709 µM; in the experiment with SNB-75 CNS it was 0.539 µM; with UO-31 renal it was 0.248 µM. Also, the TGI in the experiment on A549 NSCLC was found to be 0.815 µM; in the experiment with EKVX NSCLC, 2.9 µM; in the experiment on MCF7 breast, 18 µM; in the experiment with NCI-H460 lung it was 9.22 µM; in the experiment with PC-3 prostate, 2.98 µM; in the experiment on SF-268 CNS, 8.55 µM. Further, the TGI in the experiment on SF-295 CNS worked out at 0.55 µM; in the experiment with SNB-75 CNS, 3.71 µM; in the experiment with UO-31 renal, 16.5 µM.

For the origin of these results see PubChem BioAssay (NCI).
